{
  "source": "paper PMC7445162",
  "about": "“De novo design of an intercellular signaling toolbox for multi-channel cell–cell communication and biological computation” (Nature Communications, 2020)",
  "key": {"PhlF": {"target": "T1, PhlF (Pseudomonas protegens, UniProt Q4K422)", "T1 construct": "expressed in E. coli DH5alpha receiver cells; PphlF-sfGFP reporter", "T1 sequence (Q4K422 1-200)": "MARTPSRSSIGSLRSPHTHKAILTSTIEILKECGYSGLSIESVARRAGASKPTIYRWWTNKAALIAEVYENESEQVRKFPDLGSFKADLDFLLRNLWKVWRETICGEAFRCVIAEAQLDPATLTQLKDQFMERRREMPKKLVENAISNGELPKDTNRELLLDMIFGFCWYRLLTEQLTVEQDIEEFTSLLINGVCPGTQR", "experiment": "cell-based", "set-up": "species or system Escherichia coli DH5alpha; E. coli receiver cells, GFP reporter under aTF-responsive promoter, flow cytometry, dose-response with pure synthetic signal molecules", "settings": "synthetic pure signal, replicate", "text": "(§1) IV-HSL was chemically synthesized (Supplementary Fig. 21)."}, "FdeR [1]": {"target": "T2, FdeR (Herbaspirillum seropedicae, UniProt D8J0W4)", "T2 construct": "gene nodD; expressed in E. coli DH5alpha receiver cells; GFP reporter under the cognate promoter", "T2 sequence (D8J0W4 1-309)": "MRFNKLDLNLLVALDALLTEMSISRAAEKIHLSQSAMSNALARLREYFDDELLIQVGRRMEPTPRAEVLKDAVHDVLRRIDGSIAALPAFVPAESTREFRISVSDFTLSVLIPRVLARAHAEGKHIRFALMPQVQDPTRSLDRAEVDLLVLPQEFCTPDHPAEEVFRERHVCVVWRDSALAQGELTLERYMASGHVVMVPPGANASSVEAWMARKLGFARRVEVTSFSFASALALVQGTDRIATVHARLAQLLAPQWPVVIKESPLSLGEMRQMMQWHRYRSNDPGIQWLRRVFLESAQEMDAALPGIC", "experiment": "cell-based", "set-up": "species or system Escherichia coli DH5alpha; E. coli receiver cells, GFP reporter under aTF-responsive promoter, flow cytometry, dose-response with pure synthetic signal molecules", "settings": "synthetic pure signal, replicate", "text": "as §1"}, "FdeR [2]": {"target": "T2, FdeR", "experiment": "GFP reporter dose-response in E. coli, flow cytometry", "format": "cell-based, Escherichia coli"}, "LuxR [3]": {"target": "T3, LuxR (Aliivibrio fischeri, UniProt P12746)", "T3 construct": "expressed in E. coli DH5alpha receiver cells; GFP reporter under the Plux* promoter", "T3 sequence (P12746 1-250)": "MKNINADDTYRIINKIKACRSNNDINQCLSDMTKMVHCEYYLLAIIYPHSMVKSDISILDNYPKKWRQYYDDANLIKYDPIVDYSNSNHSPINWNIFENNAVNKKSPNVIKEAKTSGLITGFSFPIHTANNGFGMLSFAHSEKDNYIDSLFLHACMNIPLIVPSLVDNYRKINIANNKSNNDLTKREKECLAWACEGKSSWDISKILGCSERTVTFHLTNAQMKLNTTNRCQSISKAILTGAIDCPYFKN", "experiment": "cell-based", "set-up": "species or system Escherichia coli DH5alpha; E. coli receiver cells, GFP reporter under aTF-responsive promoter, flow cytometry, dose-response with pure synthetic signal molecules", "settings": "synthetic pure signal, replicate", "text": "as §1"}, "LuxR [4]": {"target": "T3, LuxR", "experiment": "GFP reporter dose-response in E. coli, flow cytometry", "format": "cell-based, Escherichia coli", "settings": "chemically pure signal molecule; M9 medium, 37 °C, 12 h; transcriptional reporter"}},
  "note": "Where two headings read alike, the source gives them in different places.",
  "data": [
    {"smiles": "CC(=O)c1c(O)cc(O)c(C(C)=O)c1O", "note": "[DAPG, 2,4-diacetylphloroglucinol]", "values": [
      {"measurement": "EC50", "setting": "PhlF; Synthetic [column B]", "result": 18.2, "unit": "µM"},
      {"measurement": "EC50", "setting": "PhlF; Synthetic [column C]", "result": 17.7, "unit": "µM"},
      {"measurement": "EC50", "setting": "PhlF; Synthetic [column D]", "result": 16.3, "unit": "µM"}
    ]},
    {"smiles": "O=C1C[C@@H](c2ccc(O)cc2)Oc2cc(O)cc(O)c21", "note": "[NG, naringenin]", "values": [
      {"measurement": "EC50", "setting": "FdeR [1]; Synthetic [column B]", "result": 12.1, "unit": "µM"},
      {"measurement": "EC50", "setting": "FdeR [1]; Synthetic [column C]", "result": 93.8, "unit": "µM"},
      {"measurement": "EC50", "setting": "FdeR [1]; Synthetic [column D]", "result": 47.3, "unit": "µM"},
      {"measurement": "EC50", "setting": "FdeR [2]", "result": 51, "unit": "µM"}
    ]},
    {"smiles": "CCCC(=O)CC(=O)N[C@H]1CCOC1=O", "note": "[3OC6, 3-oxo-C6-HSL]", "values": [
      {"measurement": "EC50", "setting": "LuxR [3]; Synthetic [column B]", "result": 0.0108, "unit": "µM"},
      {"measurement": "EC50", "setting": "LuxR [3]; Synthetic [column C]", "result": 0.0329, "unit": "µM"},
      {"measurement": "EC50", "setting": "LuxR [3]; Synthetic [column D]", "result": 0.0148, "unit": "µM"},
      {"measurement": "EC50", "setting": "LuxR [4]", "result": 0.02, "unit": "µM"}
    ]}
  ]
}
